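96-well plates; 48 h exposure; 5 concentrations. Endpoints by linear interpolation between flanking doses. Not reached: highest tested concentration assigned. GI50: concentration for 50% inhibition of growth.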 Activity calls are given as the source filed them. No stated cut-off is given here; in the data, active = GI50 up to about 1.1 µM and inactive = higher.
Tests used:
Assay in all cases: inhibition of tumour cell growth, NCI panel, 48 h
[1] = tested on: HCT-116
[2] = tested on: IGROV-1
[3] = tested on: MCF7
[4] = tested on: RXF 393
[5] = tested on: NCI-H522
[6] = tested on: BT-549
[7] = tested on: SF-268
[8] = tested on: SNB-19
[9] = tested on: MDA-N
[10] = tested on: UACC-257
[11] = tested on: HOP-92
[12] = tested on: NCI-H460
[13] = tested on: SNB-75
[14] = tested on: K562
[15] = tested on: SK-MEL-28
[16] = tested on: SK-OV-3
[17] = tested on: LOX IMVI
[18] = tested on: NCI-H23
[19] = tested on: SF-295
[20] = tested on: CAKI-1

Row | Compound | GI50 [1] | GI50 [2] | GI50 [3] | GI50 [4] | GI50 [5] | GI50 [6] | GI50 [7] | GI50 [8] | GI50 [9] | GI50 [10] | GI50 [11] | GI50 [12] | GI50 [13] | GI50 [14] | GI50 [15] | GI50 [16] | GI50 [17] | GI50 [18] | GI50 [19] | GI50 [20]
1 | COc1cc2c(c(OC)c1OC)-c1c(cc3c(c1OC)OCO3)CC(C)C(C)(O)C2OC(=O)c1ccccc1 (stereo not given) | 31.4 µM (inactive) | 38.3 µM (inactive) | 44.9 µM (inactive) | 27.9 µM (inactive) | 24.6 µM (inactive) | 56.1 µM (inactive) | 53.5 µM (inactive) | 37.8 µM (inactive) | 60.7 µM (inactive) | 44.9 µM (inactive) | 12.2 µM (inactive) | 33.3 µM (inactive) | 41 µM (inactive) | 46.3 µM (inactive) | 63.7 µM (inactive) | 60.4 µM (inactive) | 31.2 µM (inactive) | 45.4 µM (inactive) | 39.4 µM (inactive) | 33 µM (inactive)
2 | CCO/C=N/NC(=O)CSc1nc2ccc(I)cc2c(=O)n1Cc1ccccc1 | 28.8 µM (inactive) | 39 µM (inactive) | 33.6 µM (inactive) | 34.6 µM (inactive) | 3.04 µM (inactive) | > 100 µM (inactive) | 44.3 µM (inactive) | 44.2 µM (inactive) | 37.8 µM (inactive) | > 100 µM (inactive) | 83.6 µM (inactive) | 28.8 µM (inactive) | 40.5 µM (inactive) | 11 µM (inactive) | > 100 µM (inactive) | > 100 µM (inactive) | 63.8 µM (inactive) | 36.9 µM (inactive) | 56.4 µM (inactive) | > 100 µM (inactive)
3 | O=C(O)CSc1nnc2c3ccccc3c3ccccc3c2n1 | 38.2 µM (inactive) | 55.6 µM (inactive) | 40.3 µM (inactive) | 57.9 µM (inactive) | 49.9 µM (inactive) | > 100 µM (inactive) | 56.1 µM (inactive) | 44.7 µM (inactive) | 73.8 µM (inactive) | > 100 µM (inactive) | > 100 µM (inactive) | 31.8 µM (inactive) | 36.6 µM (inactive) | 59.6 µM (inactive) | > 100 µM (inactive) | 71 µM (inactive) | 41.6 µM (inactive) | > 100 µM (inactive) | 41.8 µM (inactive) | > 100 µM (inactive)
4 | CO/N=C(\C(=O)N(C)n1cnnc1)c1csc(NC(c2ccccc2)(c2ccccc2)c2ccccc2)n1 | > 10 µM (inactive) | > 10 µM (inactive) | > 10 µM (inactive) | > 10 µM (inactive) | > 10 µM (inactive) | > 10 µM (inactive) | > 10 µM (inactive) | > 10 µM (inactive) | > 10 µM (inactive) | > 10 µM (inactive) | > 10 µM (inactive) | > 10 µM (inactive) | > 10 µM (inactive) | > 10 µM (inactive) | > 10 µM (inactive) | > 10 µM (inactive) | > 10 µM (inactive) | > 10 µM (inactive) | > 10 µM (inactive) | > 10 µM (inactive)
5 | NC1(C(=O)O)CCCC1C(=O)O (stereo not given) | > 100 µM (inactive) | > 100 µM (inactive) | > 100 µM (inactive) | > 100 µM (inactive) | > 100 µM (inactive) | > 100 µM (inactive) | > 100 µM (inactive) | > 100 µM (inactive) | > 100 µM (inactive) | > 100 µM (inactive) | > 100 µM (inactive) | > 100 µM (inactive) | > 100 µM (inactive) | > 100 µM (inactive) | > 100 µM (inactive) | > 100 µM (inactive) | > 100 µM (inactive) | > 100 µM (inactive) | > 100 µM (inactive) | > 100 µM (inactive)
6 | O=C(NCc1cccnc1)C(=O)NCc1cccnc1 | > 100 µM (inactive) | > 100 µM (inactive) | > 100 µM (inactive) | > 100 µM (inactive) | > 100 µM (inactive) | > 100 µM (inactive) | > 100 µM (inactive) | > 100 µM (inactive) | > 100 µM (inactive) | > 100 µM (inactive) | > 100 µM (inactive) | > 100 µM (inactive) | > 100 µM (inactive) | > 100 µM (inactive) | > 100 µM (inactive) | > 100 µM (inactive) | > 100 µM (inactive) | > 100 µM (inactive) | > 100 µM (inactive) | > 100 µM (inactive)
7 | CNC(=O)OCc1c(COC(=O)NC)c(-c2ccc(-c3ccccc3)cc2)n(C)c1C | 2.64 µM (inactive) | 2.24 µM (inactive) | 2.75 µM (inactive) | 0.512 µM (active) | 1.58 µM (inactive) | 1.21 µM (inactive) | 0.755 µM (active) | 3.33 µM (inactive) | 4.34 µM (inactive) | 6.95 µM (inactive) | 2.99 µM (inactive) | 0.401 µM (active) | 2.95 µM (inactive) | 0.822 µM (active) | 10.9 µM (inactive) | 2.88 µM (inactive) | 2.19 µM (inactive) | 2.06 µM (inactive) | 1.43 µM (inactive) | 0.443 µM (active)
8 | Nc1nc(Cl)cc(NCC2(CO)CC(OCc3ccccc3)C2)n1 (stereo not given) | 40.5 µM (inactive) | > 100 µM (inactive) | 30.7 µM (inactive) | 14.2 µM (inactive) | 93.1 µM (inactive) | 35.9 µM (inactive) | 14.8 µM (inactive) | 41.9 µM (inactive) | > 100 µM (inactive) | > 100 µM (inactive) | > 100 µM (inactive) | 78.7 µM (inactive) | 16.4 µM (inactive) | 14.6 µM (inactive) | > 100 µM (inactive) | > 100 µM (inactive) | 23.2 µM (inactive) | > 100 µM (inactive) | > 100 µM (inactive) | > 100 µM (inactive)
9 | CC(C)NC(=O)OCc1c(COC(=O)NC(C)C)c(-c2ccc[n+](COC(=O)Cc3ccccc3)c2)n2c1CCC2 | 30.4 µM (inactive) | 75.3 µM (inactive) | 25.1 µM (inactive) | 23 µM (inactive) | 19 µM (inactive) | 24.1 µM (inactive) | 26.9 µM (inactive) | 94.8 µM (inactive) | 80 µM (inactive) | 58.9 µM (inactive) | 16.4 µM (inactive) | 19.8 µM (inactive) | 24.3 µM (inactive) | 71 µM (inactive) | > 100 µM (inactive) | 29.2 µM (inactive) | 24 µM (inactive) | 21.3 µM (inactive) | 35 µM (inactive) | 9.48 µM (inactive)

— ChEMBL document CHEMBL1201862, “PubChem BioAssay data set” (2004)
